The test system of assay [1] is anti-Chlamydia abzymes. Type of assay: biochemical, human. The procedure: (§1) For chemical inactivation, a diluent solution was divided into two portions. In one portion, an abzyme inhibitor was added. The following abzyme inhibitors were used DMSO, 0.1-10%; sodium azide, 10^−5-10^−3M; catechins, 10^−6-10^−3M; ketek, […]; lactobacilli culture, 1 μM-1 mM; ascorbic acid, 10^−4-10^−3M; acetyl salicylic acid, 10^−4-10^−3M.
(§2) The serum sample was split in two aliquots and one aliquot was diluted by solution containing the abzyme inhibitor, the second aliquot was diluted by the control solution. The aliquots were then tested in the same fashion.
ELISA assays were performed using Medac materials and reagents, which were used in accordance with the manufacturers instructions.
Briefly, serum samples from patients were treated as described above. 50 μl of sample diluent was pipetted into microtitre well Al as blank, and 50 μl of the negative control, Positive Control and the diluted patients' samples were pipetted into other microtitre wells. The microplate wells were incubated for 60 min (±5 min) at 37° C. (±1° C.) in a humid chamber and then washed three times with 200 μl wash buffer per well. 50 μl of Conjugate was then added to each well and the microplate wells incubated again for 60 min (±5 min) at 37° C. (±1° C.) in a humid chamber and then washed. 50 μl of TMB-Substrate, was added to each well and the microplate wells incubated for 30 min (±2 min) at 37° C. (±1° C.) in a humid chamber. The reaction was stopped by adding 100 μl of Stop Solution, to each well.
Photometric reading was performed using a plate reader at 450 nm (ref. 620-650 nm) within 15 min after adding the Stop Solution.
To calculate the results, the OD value of the blank (well A1) was subtracted from all other OD values. […] Cut-off=mean OD value of the Negative Control+0.380. Grey zone=Cut-off±10%

Assay [2] deals with anti-Chlamydia abzymes. Type of assay: biochemical, human. The procedure:
as §1, §2
Lipid peroxidation was assessed as a level of MDA concentration which was measured by spectrophotometric method [Draper, H. H. et al Free Radic. Biol. Med. (1993) 15, 353]. This method is based on the formation of a coloured product when malondialdehyde reacts with thiobarbituric acid. Briefly, the level of abzymes in a sample was determined as follows: Samples of sera were diluted 1:1 by 0.05M acetate buffer pH 4.0 to make the final pH of these samples between 5.6-5.8. 990 μl of the diluted serum was mixed with 10 μl of the commercial live ovine Chlamydia vaccine (Intervet). Samples were incubated overnight (12-16 hours) at 37° C. 250 μl of 40% trichloroacetic acid and 250 μl of 1 mM 2-thiobarbituric acid was added to each sample. All samples were placed in a water bath and boiled for 30 minutes. Samples were cooled down and centrifuged at 3,000 g for 10 minutes. The supernatants were collected and their absorption measured at λ 525 nm to determine the concentration of malondialdehydes (MDA), which are products of lipid peroxidation.
This is another data set of the same source.

Setting [3] is: patient serum, abzyme inhibitor added to diluent.

Like-named read-outs stand apart in the source and are kept apart here.

For the molecule `Cc1c(O)cc2c(c1C)O[C@](C)(CCC[C@H](C)CCC[C@H](C)CCCC(C)C)CC2` [(+) y-Tocopherol], in the assay on anti-Chlamydia abzymes [1], the “Inhibition of abzymes ability to cause: Damage of Chlamydia pneumoniae antigen, in ELISA” value (from here on “Inhibition of abzymes ability … in ELISA”) is listed as “Negative”. Also, the “Inhibition of abzymes ability to cause: Serum lipid peroxidation, in MDA assay” value (“Inhibition of abzymes ability … in MDA assay” for short) in the assay with anti-Chlamydia abzymes [2] was “Negative”.
Consider `Cc1c(C)c2c(c(C)c1O)CC[C@@](C)(CCC[C@H](C)CCC[C@H](C)CCCC(C)C)O2` [(+) α-Tocopherol], for which the “Inhibition of abzymes ability … in ELISA” value with anti-Chlamydia abzymes [1] (setting [3]) is listed as “Negative”. Besides, the “Inhibition of abzymes ability … in MDA assay” value with anti-Chlamydia abzymes [2] (setting [3]) is “Negative”.
`CC(=O)Oc1ccccc1C(=O)O` [Acetyl salicylic acid]: in the assay with anti-Chlamydia abzymes [1], the “Inhibition of abzymes ability … in ELISA” value was “Positive”. Besides, the “Inhibition of abzymes ability … in MDA assay” value in the assay with anti-Chlamydia abzymes [2] was “Positive”.
Regarding `O=C1O[C@H]([C@@H](O)CO)C(O)=C1O` [Ascorbic acid], the “Inhibition of abzymes ability … in ELISA” value in the assay on anti-Chlamydia abzymes [1] (setting [3]) is “Positive”. Besides, in the assay on anti-Chlamydia abzymes [2] (setting [3]), the “Inhibition of abzymes ability … in MDA assay” value is “Positive”.
Take `O=C(O)c1ccccc1` [Benzoic acid]: the “Inhibition of abzymes ability … in ELISA” value in the assay on anti-Chlamydia abzymes [1] is on record as “Negative”. Besides, in the assay with anti-Chlamydia abzymes [2], the “Inhibition of abzymes ability … in MDA assay” value was “Negative”.
For the molecule `OC[C@@H](O)[C@@H](O)[C@H](O)[C@H](O)CO` [D-Mannitol], the “Inhibition of abzymes ability … in ELISA” value in the assay on anti-Chlamydia abzymes [1] (setting [3]) was “Negative”. Moreover, the “Inhibition of abzymes ability … in MDA assay” value in the assay on anti-Chlamydia abzymes [2] (setting [3]) is “Negative”.
In the case of `C[S+](C)[O-]` [DMSO], the “Inhibition of abzymes ability … in ELISA” value with anti-Chlamydia abzymes [1] (setting [3]) was “Positive”. For the same molecule, the “Inhibition of abzymes ability … in MDA assay” value in the assay with anti-Chlamydia abzymes [2] (setting [3]) is reported as “Positive”.
`O=C(O)CN(CCN(CC(=O)O)CC(=O)O)CC(=O)O` [EDTA]: in the assay with anti-Chlamydia abzymes [1], the “Inhibition of abzymes ability … in ELISA” value was “Positive”. Further, the “Inhibition of abzymes ability … in MDA assay” value with anti-Chlamydia abzymes [2] is “Positive”.
Turning to `O=C(O)CN(CCOCCOCCN(CC(=O)O)CC(=O)O)CC(=O)O` [EGTA], the “Inhibition of abzymes ability … in ELISA” value in the assay with anti-Chlamydia abzymes [1] (setting [3]) is “Positive”.
On to `CC(C)=CCC/C(C)=C/C=C/C(C)=C/C=C/C(C)=C/C=C/C=C(C)/C=C/C=C(C)/C=C/C=C(\C)CCC=C(C)C` [Lycopene], for which, in the assay on anti-Chlamydia abzymes [1] (setting [3]), the “Inhibition of abzymes ability … in ELISA” value is “Negative”. Further, the “Inhibition of abzymes ability … in MDA assay” value in the assay on anti-Chlamydia abzymes [2] (setting [3]) is reported as “Negative”.
With `CC[C@H]1OC(=O)[C@H](C)C(=O)[C@H](C)[C@@H](O[C@@H]2O[C@H](C)C[C@H](N(C)C)[C@H]2O)[C@](C)(OC)C[C@@H](C)C(=O)[C@H](C)[C@H]2N(CCCCn3cnc(-c4cccnc4)c3)C(=O)O[C@]12C` [Telithromycin, Ketek, Telithromycin], the “Inhibition of abzymes ability … in ELISA” value in the assay on anti-Chlamydia abzymes [1] (setting [3]) is reported as “Positive”. Moreover, the “Inhibition of abzymes ability … in MDA assay” value in the assay on anti-Chlamydia abzymes [2] (setting [3]) was “Positive”.
For `CC1=C(/C=C/C(C)=C/C=C/C(C)=C/C=C/C=C(C)/C=C/C=C(C)/C=C/C2=C(C)CCCC2(C)C)C(C)(C)CCC1` [β-Carotene], the “Inhibition of abzymes ability … in ELISA” value with anti-Chlamydia abzymes [1] is “Negative”. Besides, the “Inhibition of abzymes ability … in MDA assay” value in the assay with anti-Chlamydia abzymes [2] is on record as “Negative”.
Turning to (+) Catechin gallate, the “Inhibition of abzymes ability … in ELISA” value in the assay with anti-Chlamydia abzymes [1] (setting [3]) was “Positive”. Further, the “Inhibition of abzymes ability … in MDA assay” value with anti-Chlamydia abzymes [2] (setting [3]) is “Positive”.
On to Haemoglobin, for which the “Inhibition of abzymes ability … in ELISA” value with anti-Chlamydia abzymes [1] was “Positive”. Further, in the assay on anti-Chlamydia abzymes [2], the “Inhibition of abzymes ability … in MDA assay” value is “Positive”.
Regarding PMS, in the assay on anti-Chlamydia abzymes [1], the “Inhibition of abzymes ability … in ELISA” value is listed as “Negative”. Moreover, the “Inhibition of abzymes ability … in MDA assay” value with anti-Chlamydia abzymes [2] is listed as “Negative”.

Values taken from patent publication US7939275B2, “Methods for detection of chlamydia in samples” (priority 2005, dated 2011).
